These results are taken from PubChem BioAssay (NCI).

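Cultured in 96-well plates, cells were exposed to test compound for 48 hours across five concentrations. TGI: total growth inhibition.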

Some test systems named below: SW-620 colon; SK-OV-3 ovarian; BT-549 breast; UACC-62 melanoma; T-47D breast; NCI-H460 lung; A549 NSCLC; M14 melanoma; MCF7 breast; HCT-15 colon; SNB-75 CNS; TK-10 renal; SNB-19 CNS; DU-145 prostate; HCC-2998 colon; OVCAR-8 ovarian; SR leukemia.
Assay in all cases: NCI anticancer screen, dose series, 48 h

`COC(=O)[C@H](Cc1ccccc1)NC(=O)N(CCC#N)CCCCN(CCC#N)C(=O)N[C@@H](Cc1ccccc1)C(=O)OC`: the TGI in the assay on SW-620 colon, with SK-OV-3 ovarian, in the assay with BT-549 breast, in the assay with UACC-62 melanoma, in the assay with T-47D breast and with NCI-H460 lung was greater than 100 µM throughout. In addition, the TGI with A549 NSCLC was greater than 100 µM; in the assay with M14 melanoma it was greater than 100 µM; with MCF7 breast it was greater than 100 µM; in the assay with HCT-15 colon it was greater than 100 µM; in the assay with SNB-75 CNS, greater than 79.1 µM; in the assay on TK-10 renal, greater than 100 µM. Moreover, the TGI in the assay on SNB-19 CNS, with DU-145 prostate, in the assay on HCC-2998 colon and with OVCAR-8 ovarian was greater than 100 µM throughout.
Consider `O=C1CCC(=O)N1CNc1ccc2c(c1)S(=O)(=O)c1ccccc1O2`, for which the TGI in the assay on SW-620 colon, with BT-549 breast, with UACC-62 melanoma, with T-47D breast, in the assay on A549 NSCLC and in the assay on M14 melanoma was greater than 100 µM in each case. Further, the TGI in the assay on MCF7 breast, in the assay with HCT-15 colon, in the assay on TK-10 renal, in the assay with SNB-19 CNS, with DU-145 prostate and in the assay with OVCAR-8 ovarian was greater than 100 µM in each case.
Regarding `O=C(CC(O)(C(F)(F)F)C(F)(F)Cl)CC(O)(C(F)(F)F)C(F)(F)Cl` (configuration not stated), the TGI is greater than 10 µM in the assay on SW-620 colon; 4.69 µM in the assay on SK-OV-3 ovarian; greater than 10 µM with SR leukemia; greater than 10 µM with UACC-62 melanoma; greater than 10 µM in the assay with T-47D breast; 8.85 µM with NCI-H460 lung. In addition, the TGI with A549 NSCLC is greater than 10 µM; in the assay on M14 melanoma it was greater than 10 µM; with MCF7 breast it was greater than 10 µM; with HCT-15 colon, greater than 10 µM; in the assay with SNB-75 CNS, greater than 10 µM; with TK-10 renal, 9.9 µM. In addition, the TGI with SNB-19 CNS, in the assay on DU-145 prostate, in the assay on HCC-2998 colon and in the assay with OVCAR-8 ovarian was greater than 10 µM throughout.
Consider `Cc1ccc(S(=O)(=O)N2CCCSCCSCCCN(S(=O)(=O)c3ccc(C)cc3)CC2)cc1`, for which the TGI in the assay with SW-620 colon, in the assay on SK-OV-3 ovarian, in the assay with BT-549 breast, in the assay on UACC-62 melanoma, in the assay with T-47D breast and in the assay with NCI-H460 lung was greater than 100 µM each time. The TGI with A549 NSCLC, in the assay on M14 melanoma, with MCF7 breast, in the assay with HCT-15 colon, with SNB-75 CNS and in the assay with TK-10 renal was greater than 100 µM throughout. For the same compound, the TGI in the assay with SNB-19 CNS, with DU-145 prostate, with HCC-2998 colon and with OVCAR-8 ovarian was greater than 100 µM each time.
Consider `O=S(=O)(O)c1cc(S(=O)(=O)O)c2cc(N=Nc3c(O)ccc4ccccc34)ccc2c1`, for which the TGI with SW-620 colon, in the assay on SK-OV-3 ovarian, in the assay with BT-549 breast, in the assay on UACC-62 melanoma, in the assay on T-47D breast and in the assay with A549 NSCLC was greater than 100 µM each time. Besides, the TGI in the assay with M14 melanoma, in the assay on HCT-15 colon, in the assay with SNB-75 CNS, in the assay with TK-10 renal, with SNB-19 CNS and in the assay with DU-145 prostate was greater than 100 µM each time. In the assay on OVCAR-8 ovarian, this compound returned a TGI greater than 100 µM.
Turning to `Cc1ccc(S(=O)(=O)NC(=O)Nc2cccc(S(N)(=O)=O)c2)cc1`, the TGI in the assay on SW-620 colon, with SK-OV-3 ovarian, in the assay with SR leukemia, in the assay with UACC-62 melanoma, in the assay on T-47D breast and in the assay on NCI-H460 lung was greater than 100 µM each time. Also, the TGI with A549 NSCLC, in the assay with M14 melanoma, in the assay with MCF7 breast, with HCT-15 colon, in the assay on SNB-75 CNS and in the assay with TK-10 renal was greater than 100 µM each time. The TGI with SNB-19 CNS, with DU-145 prostate and in the assay with HCC-2998 colon was greater than 100 µM throughout.
For `CCOc1ccccc1NC(=O)C(=O)C(/C(=N/N)C(=O)OC)c1nc2ccc([N+](=O)[O-])cc2[nH]c1=O` (configuration not stated), the TGI in the assay on SW-620 colon, in the assay on SK-OV-3 ovarian, with BT-549 breast, in the assay with SR leukemia, in the assay on UACC-62 melanoma and in the assay with T-47D breast was greater than 100 µM in each case. Further, the TGI with NCI-H460 lung, in the assay with A549 NSCLC, with M14 melanoma, with MCF7 breast, with HCT-15 colon and with SNB-75 CNS was greater than 100 µM in each case. Also, the TGI in the assay with TK-10 renal, in the assay with HCC-2998 colon and in the assay with OVCAR-8 ovarian was greater than 100 µM throughout.
For the compound `CC(C)=NNc1snnc1C(N)=O`, the TGI in the assay with SK-OV-3 ovarian, in the assay on BT-549 breast, with UACC-62 melanoma, with T-47D breast, in the assay with A549 NSCLC and in the assay with M14 melanoma was greater than 100 µM in each case. Also, the TGI with MCF7 breast, with SNB-75 CNS, in the assay with TK-10 renal, in the assay with SNB-19 CNS, with DU-145 prostate and in the assay with HCC-2998 colon was greater than 100 µM each time. Also, the TGI with OVCAR-8 ovarian is greater than 100 µM.
On to `c1csc(-c2nccc3c2[nH]c2ccccc23)c1`, for which the TGI stood at 46.3 µM with SW-620 colon; 41.5 µM in the assay on SK-OV-3 ovarian; 48 µM in the assay with SR leukemia; 62.4 µM in the assay with UACC-62 melanoma; 63.2 µM with T-47D breast; 57 µM with NCI-H460 lung. For the same compound, the TGI with A549 NSCLC came to 49.2 µM; with M14 melanoma, 31.6 µM; with MCF7 breast, 20.8 µM; with HCT-15 colon, 48.1 µM; in the assay with SNB-75 CNS, 42.8 µM; in the assay on TK-10 renal, 48.7 µM. For the same compound, the TGI was greater than 100 µM in the assay on SNB-19 CNS, 63.9 µM with DU-145 prostate, 39.6 µM in the assay with HCC-2998 colon and 42.8 µM in the assay on OVCAR-8 ovarian.
